Earlier results in patent US20050201989A1, “Compositions and methods for ex vivo preservation of blood vessels for vascular grafts using inhibitors of tumor necrosis factor-alpha” (St. Camillus Medical, Inc., priority 2004, published 2005).

Test system: endothelial cells
Settings: general knowledge statement, no test described

CCCC(=O)Nc1ncnc2c1ncn2[C@@H]1O[C@@H]2COP(=O)(O)O[C@H]2[C@H]1OC(=O)CCC [db cAMP, dibutyryl adenosine 3′,5′-cyclic monophosphate]
db cAMP concentration that becomes toxic to endothelial cells: higher than 4 mM
